According to US20250230226A1, “PLXDC1/PLXDC2 ACTIVATORS AND THEIR USE IN THE TREATMENT OF BLOOD VESSEL DISORDERS” (THE REGENTS OF THE UNIVERSITY OF CALIFORNIA, priority 2019, published 2025):

Tested on: LL/2 lung cancer tumor endothelial cells
Assay: Lung LL2 ex vivo model of tumor angiogenesis
Format: cell-based, mouse
Conditions: for Cell death: drug treatment for two days, ratio of red area to total endothelial cell area; for 48 hrs (morphology observations): LL/2 tumor endothelial cells; for cytotoxicity at 40 µM / cytotoxicity at 20 µM: Mus musculus, Endothelial cell, 48 h, read-out: Cell death
Method: An ex vivo tumor angiogenesis model was developed to test the efficacy of anti-cancer candidate agents. The following protocol describes the Ex Vivo Tumor Angiogenesis Model.
• 1. The day before the experiment, all necessary tools were sprayed with 70% ethanol and sterilized under UV light overnight, including blade, dissecting and micro-dissecting scissors and […]. 24-well dishes were placed at 4° C. to pre-chill plates and Matrigel was thawed, 24 hours before tumor dissection. • 2. 70% ethanol was sprayed on working bench. Two sterile petri dishes were prepared with 10 ml sterile PBS. The following steps 3 and 4 are necessary for mouse tumor models. For fresh human tumor, steps 3 and 4 are skipped. • 3. The tumor-bearing mice were euthanized. 70% ethanol was sprayed on the mouse and the tumor was removed using sterilized dissecting tools (avoid the fur). The tumor was rinsed in petri dish with sterile PBS to remove ethanol and fur. The tumor was transferred to a new petri dish with PBS for dissection. The dish is placed on ice. • 4. Pre-chilled sterile pipet tips were used to seed regular Matrigel in 24 well plates on ice. Matrigel (30 μl) was dropped in the middle of each well without touching the edge of the well (avoid introducing bubbles if possible). • 5. The tumor was cut in halves using the sterile blade. Healthy tumor tissue that is not necrotic and is within the tumor capsule was identified and isolated. The healthy tumor tissue was cut into small pieces. For instance, a suitable size for the tumor tissue is 0.5 mm (H)×0.5 mm (L)×0.3 mm (D) with a total volume of 0.075 mm^3. • 6. Each tumor piece was gently transferred and embedded in the Matrigel drop in the 24-well plate. The embedded piece was placed in the bottom and middle of each Matrigel drop. The plate was kept on ice all the time. • 7. After seeding the tumor pieces, plates were incubated in a 37° C. cell culture incubator without medium for 10 minutes in order for the Matrigel to solidify. • 8. Endothelial Growth Medium (0.5 ml) was added to each well and incubated at 37° C. with 5% CO2. Treatment was not added until the new endothelial cells was grown out of the tumor or were larger than 3 mm in diameter. This usually takes 4 days for the LL2 Lewis lung cancer model and 7 days for the CT26 colon cancer model. For human tumor models, the growth time is typically 2-3 weeks, depending on the tumor type. Media was changed every 4 days during prolonged culture. Typically, when the tumor tissue grows to 2 mm in diameter, it was good for drug testing. A size of about 3 mm in diameter can make visualization easier. • 9. When the assay was ready to be analyzed for cell death (e.g., 48 hours after drug addition), the dye mixture was prepared by mixing 6 μl of green dye to stain live cells (5 mg/ml Fluorescein diacetate or FDA in DMSO) with 30 μl of red dye (2.5 mg/ml Propidium iodide or PI in PBS) to stain dead cells in an Eppendorf tube. The FDA dye needs to be stored frozen in a −20° C. freezer because it has a labile ester bond. • 10. 1 μl of the dye mixture was added to each well of the 24-well dish. It is usually preferred to do one 24-well dish at a time given the amount of time needed to take pictures (the green dye is not as stable in the cells in the long term). • 11. The dish was gently rocked a few times to mix the dye with the media in the wells and incubate the dish at 37° C. for 10 min (too long incubation can make the green signal too intense). • 12. Each well was washed with 0.5 ml of sterile PBS and then 0.5 ml of phenol red free SFM was added to each well. Alternatively 0.5 ml of regular Endothelial Cell Growth Media can be added to each well if this well needs to be continuously maintained after the experiment. • 13. An inverted microscope using the 2× objective lens was used to observe morphological changes in the experimental wells. • 14. […]

Compound: CCCCCCCCCCCCOc1ccc(S(=O)(=O)c2cnc3ccc([S+](C)[O-])cc3c2N2CCC(N3CCC(N4CCN(C)CC4)CC3)CC2)cc1F (centres unmarked) [Compound 370]
- Cell death (20 μm): 20%

Compound: CCc1ccc(S(=O)(=O)c2cnc3ccc(OC)cc3c2NN2CCN(C)CC2)cc1 [Compound 83]
- 48 hrs (morphology observations) (40 μm): 0
- cytotoxicity at 40 µM: 20%

Compound: CCCCCCCCCCCCOc1ccc(S(=O)(=O)c2cnc3ccc([S+](C)[O-])cc3c2N2CCC(N3CCN(CCO)CC3)CC2)cc1 (centres unmarked) [Compound 344]
- 48 hrs (morphology observations) (20 μm): * (50% or less of cells vesicularize in cell shape)
- cytotoxicity at 20 µM: 10%

Compound: CCCCOc1ccc(S(=O)(=O)c2cnc3ccc([S+](C)[O-])cc3c2N2CCC(N3CCC(CO)CC3)CC2)cc1 (centres unmarked) [Compound 240]
- 48 hrs (morphology observations) (40 μm): 0
- Cell death (40 μm): 30%

Compound: CCc1ccc(S(=O)(=O)c2cnc3ccc(OC(F)(F)F)cc3c2NN2CCCCC2)cc1 [Compound 105]
- 48 hrs (morphology observations) (20 μm): 0
- Cell death (20 μm): 0%

Compound: CCOC(=O)c1ccc2ncc(S(=O)(=O)c3ccc(OC)cc3)c(N3CCC(N4CCC(CO)CC4)CC3)c2c1 [Compound 175]
- 48 hrs (morphology observations) (40 μm): 0
- Cell death (40 μm): 30%

Compound: CCCCOc1ccc(S(=O)(=O)c2cnc3ccc(C(=O)OCC)cc3c2N2CCCN(CCN3CCCC3)CC2)cc1 [Compound 182]
- 48 hrs (morphology observations) (40 μm): **** (100% of endothelial cells vesicularize in cell shape and look flattened in morphology (indicating disintegration of the cell body))
- Cell death (40 μm): 100%

Compound: COc1ccc(S(=O)(=O)c2cnc3ccc(C(=O)N(C)C)cc3c2N2CCCN(CC(=O)N(C)C)CC2)cc1 [Compound 333]
- 48 hrs (morphology observations) (40 μm): 0
- Cell death (40 μm): 0%

Compound: CCCCCCCCCCCCCCOc1ccc(S(=O)(=O)c2cnc3ccc([S+](C)[O-])cc3c2N2CCC(N3CCC(N4CCN(CCO)CC4)CC3)CC2)cc1F (centres unmarked) [Compound 368]
- Cell death (20 μm): 20%

Compound: CCCCCCCCCCCCOc1ccc(S(=O)(=O)c2cnc3ccc([S+](C)[O-])cc3c2N2CCC(N3CCC(N4CCN(CCO)CC4)CC3)CC2)cc1 (centres unmarked) [Compound 340]
- 48 hrs (morphology observations) (20 μm): *** (more than 50% but less than 100% of endothelial cells vesicularize in cell shape)
- Cell death (20 μm): 60%

Compound: CCOC(=O)c1ccc2ncc(S(=O)(=O)c3ccc(OC)cc3)c(-n3cncn3)c2c1 [Compound 183]
- 48 hrs (morphology observations) (10 μm): **** (100% of endothelial cells vesicularize in cell shape and look flattened in morphology (indicating disintegration of the cell body))
- Cell death (10 μm): 100%

Compound: CCCCOc1ccc(S(=O)(=O)c2cnc3ccc(C(=O)OCC)cc3c2N2CCN(c3ccc(F)cc3)CC2)cc1 [Compound 213]
- 48 hrs (morphology observations) (40 μm): 0
- cytotoxicity at 40 µM: 30%

Compound: CCCCOc1ccc(S(=O)(=O)c2cnc3ccc(C(=O)OCC)cc3c2N2CCC(N3CCSCC3)CC2)cc1 [Compound 217]
- 48 hrs (morphology observations) (40 μm): 0
- Cell death (40 μm): 30%

Compound: COc1ccc(S(=O)(=O)c2cnc3cc(OC)c(OC)cc3c2N2CCCN(CC3(O)CCCC3)CC2)cc1 [Compound 325]
- 48 hrs (morphology observations) (40 μm): * (50% or less of cells vesicularize in cell shape)
- Cell death (40 μm): 30%

Compound: CCCCCCCCCCCCOc1ccc(S(=O)(=O)c2cnc3ccc([S+](C)[O-])cc3c2N2CCC(N3CCC(N4CCN(C)CC4)CC3)CC2)cc1 (centres unmarked) [Compound 341]
- 48 hrs (morphology observations) (20 μm): *** (more than 50% but less than 100% of endothelial cells vesicularize in cell shape)
- Cell death (20 μm): 80%

Compound: CCCCCCCCCCCCCCOc1ccc(S(=O)(=O)c2cnc3ccc([S+](C)[O-])cc3c2N2CCC(N3CCN(CCO)CC3)CC2)cc1 (centres unmarked) [Compound 339]
- cytotoxicity at 20 µM: 50%

Compound: CCCCCCCCCCCCOc1ccc(S(=O)(=O)c2cnc3ccc([S+](C)[O-])cc3c2N2CCC(N3CCC(N4CCC(O)CC4)CC3)CC2)cc1 (centres unmarked) [Compound 374]
- Cell death (20 μm): 20%

Compound: COc1ccc(S(=O)(=O)c2cnc3cc(OC)c(OC)cc3c2N2CCC3C(COCCN3CC(C)C)C2)cc1 (centres unmarked) [Compound 324]
- 48 hrs (morphology observations) (40 μm): 0
- Cell death (40 μm): 60%

Compound: CCCCOc1ccc(S(=O)(=O)c2cnc3ccc(C(=O)OCC)cc3c2N2CCC(N3CCCC(O)C3)CC2)cc1 (centres unmarked) [Compound 177]
- 48 hrs (morphology observations) (40 μm): **** (100% of endothelial cells vesicularize in cell shape and look flattened in morphology (indicating disintegration of the cell body))
- Cell death (40 μm): 100%

Compound: COc1ccc(C2CCN(c3c(S(=O)(=O)c4ccc(OC)cc4)cnc4cc(OC)c(OC)cc34)CC2)cc1 [Compound 311]
- 48 hrs (morphology observations) (40 μm): 0
- Cell death (40 μm): 30%

Compound: CCCCCCCCCCOc1ccc(S(=O)(=O)c2cnc3ccc([S+](C)[O-])cc3c2N2CCC(N3CCC(O)(c4ccccc4)CC3)CC2)cc1 (centres unmarked) [Compound 270]
- 48 hrs (morphology observations) (20 μm): * (50% or less of cells vesicularize in cell shape)

Compound: CCN(CC)CCN(CC)c1c(S(=O)(=O)c2ccc(OC)cc2)cnc2cc(OC)c(OC)cc12 [Compound 296]
- 48 hrs (morphology observations) (40 μm): 0
- Cell death (40 μm): 20%

Compound: CCCCOc1ccc(S(=O)(=O)c2cnc3ccc(C(=O)N(CC)CC)cc3c2N2CCCN(C)CC2)cc1 [Compound 199]
- 48 hrs (morphology observations) (40 μm): 0
- Cell death (40 μm): 30%

Compound: CNC(=O)c1ccc2ncc(S(=O)(=O)c3ccc(OC)cc3)c(N3CCC(N4CCCCC4)CC3)c2c1 [Compound 143]
- 48 hrs (morphology observations) (40 μm): 0
- cytotoxicity at 40 µM: 40%

Compound: CCCCCCCCCCCCCCOc1ccc(S(=O)(=O)c2cnc3ccc([S+](C)[O-])cc3c2N2CCC(N3CCC(N4CCCCC4)CC3)CC2)cc1F (centres unmarked) [Compound 366]
- 48 hrs (morphology observations) (20 μm): 0
- Cell death (20 μm): 10%

Compound: CCc1ccc(S(=O)(=O)c2cnc3ccc(OC(F)(F)F)cc3c2-n2cccn2)cc1 [Compound 109]
- 48 hrs (morphology observations) (20 μm): 0
- Cell death (20 μm): 0%

Compound: CCCCCCCOc1ccc(S(=O)(=O)c2cnc3ccc(SC)cc3c2N2CCC(N3CCC(O)(c4ccccc4)CC3)CC2)cc1 [Compound 262]
- 48 hrs (morphology observations) (10 μm): 0
- Cell death (10 μm): 20%

Compound: CCCCOc1ccc(S(=O)(=O)c2cnc3ccc(C(=O)OCC)cc3c2-n2cnnn2)cc1 [Compound 186]
- 48 hrs (morphology observations) (10 μm): **** (100% of endothelial cells vesicularize in cell shape and look flattened in morphology (indicating disintegration of the cell body))
- Cell death (10 μm): 90%

Compound: COc1ccc(N2CCN(c3c(S(=O)(=O)c4ccc(OC)cc4)cnc4cc(OC)c(OC)cc34)CC2=O)cc1 [Compound 318]
- 48 hrs (morphology observations) (40 μm): 0
- Cell death (40 μm): 30%

Compound: CCCCOc1ccc(S(=O)(=O)c2cnc3ccc([S+](C)[O-])cc3c2N2CCC(N3CCOCC3)CC2)cc1 (centres unmarked) [Compound 235]
- 48 hrs (morphology observations) (40 μm): 0
- Cell death (40 μm): 10%

Compound: CCCCOc1ccc(S(=O)(=O)c2cnc3ccc(SC)cc3c2N2CCC(=O)N(C)CC2)cc1 [Compound 357]
- 48 hrs (morphology observations) (40 μm): 0
- cytotoxicity at 40 µM: 0%

Compound: CCc1ccc(S(=O)(=O)c2cnc3ccc(OC(F)(F)F)cc3c2-n2cnnn2)cc1 [Compound 125]
- 48 hrs (morphology observations) (20 μm): * (50% or less of cells vesicularize in cell shape)
- cytotoxicity at 20 µM: 10%

Compound: CCCCOc1ccc(S(=O)(=O)c2cnc3ccc(SC)cc3c2N2CCCN(C3CCS(=O)(=O)CC3)CC2)cc1 [Compound 359]
- 48 hrs (morphology observations) (40 μm): 0
- cytotoxicity at 40 µM: 20%

Compound: CCOC(=O)c1ccc2ncc(S(=O)(=O)c3ccc(OC)cc3)c(-n3ccnc3)c2c1 [Compound 141]
- 48 hrs (morphology observations) (20 μm): **** (100% of endothelial cells vesicularize in cell shape and look flattened in morphology (indicating disintegration of the cell body))
- Cell death (20 μm): 90%

Compound: CCc1ccc(S(=O)(=O)c2cnc3ccc(OC(F)(F)F)cc3c2NN2CCOCC2)cc1 [Compound 126]
- 48 hrs (morphology observations) (20 μm): 0
- Cell death (20 μm): 10%
